Reference: US8716281B2, “Pyrimidine compounds that inhibit anaplastic lymphoma kinase” (Amgen Inc., priority 2010, dated 2014)

Each compound was assayed against T1, wild-type human ALK cytoplasmic domain (amino acids 1058-1620) (Homo sapiens, UniProt Q9UM73) (assay: ALK Inhibition in Enzyme Assay (Lance TR-FRET)). Conditions: 2 nM enzyme, ATP at 40 μM (Km apparent), 90 minutes, mean of three replicates; read-out: ALK IC50.
T1 construct: The cytoplasmic domain (amino acids 1058-1620) of wild-type human ALK; GST (N); made in house; host or cells: SF9 insect cells
T1 sequence (Q9UM73 1058-1620): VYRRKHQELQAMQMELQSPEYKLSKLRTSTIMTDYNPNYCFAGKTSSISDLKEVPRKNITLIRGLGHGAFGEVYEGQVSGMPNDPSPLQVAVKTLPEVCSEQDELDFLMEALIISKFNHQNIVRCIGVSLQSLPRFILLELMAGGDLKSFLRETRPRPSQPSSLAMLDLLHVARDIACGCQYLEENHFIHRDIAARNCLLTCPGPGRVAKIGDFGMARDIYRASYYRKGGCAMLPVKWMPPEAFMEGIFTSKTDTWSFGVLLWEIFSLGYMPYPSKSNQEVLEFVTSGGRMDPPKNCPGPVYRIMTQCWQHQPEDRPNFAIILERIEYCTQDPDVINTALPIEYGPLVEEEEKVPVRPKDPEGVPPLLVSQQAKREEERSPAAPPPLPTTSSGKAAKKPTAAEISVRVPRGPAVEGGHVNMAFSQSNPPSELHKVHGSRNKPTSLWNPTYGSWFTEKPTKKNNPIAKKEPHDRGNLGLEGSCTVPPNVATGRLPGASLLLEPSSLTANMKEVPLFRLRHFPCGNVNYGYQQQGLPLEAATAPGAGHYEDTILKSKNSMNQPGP
Format: biochemical
Outline: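 TR-FRET read-out (Eu-W1024 PT66 anti-phosphotyrosine plus streptavidin-allophycocyanin, 320 nm excitation) quantified biotinylated peptide phosphorylation by the purified kinase. Reaction ran 90 minutes at room temperature before quenching with 20 mM EDTA in Tris pH 7.5 buffer with NaCl, BSA and Tween-20.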

Structure (SMILES)	IC50 [µM]
Cc1ccc(CNC(=O)[C@H]2CCCN(c3ccnc(Nc4ccc(C(=O)N(C)C)cc4)n3)C2)cc1 [Example 154, (3S)-1-(2-((4-(dimethylcarbamoyl)phenyl)amino)-4-pyrimidinyl)-N-(4-methylbenzyl)-3-piperidinecarboxamide]	1 to 5
Cc1ccc(CNC(=O)[C@H]2CCCN(c3ccnc(Nc4cc(C)cc(C)c4)n3)C2)cc1 [Example 155, (3S)-1-(2-((3,5-dimethylphenyl)amino)-4-pyrimidinyl)-N-(4-methylbenzyl)-3-piperidinecarboxamide]	1 to 5
Cc1ccc(CNC(=O)[C@H]2CCCN(c3ccnc(Nc4cc(F)cc(F)c4)n3)C2)cc1 [Example 159, (3S)-1-(2-((3,5-difluorophenyl)amino)-4-pyrimidinyl)-N-(4-methylbenzyl)-3-piperidinecarboxamide]	1 to 5
Cc1ccc(CNC(=O)[C@H]2CCCN(c3ccnc(Nc4cccc(OC(F)(F)F)c4)n3)C2)cc1 [Example 164, (3S)-N-(4-methylbenzyl)-1-(2-((3-(trifluoromethoxy)phenyl)amino)-4-pyrimidinyl)-3-piperidinecarboxamide]	1 to 5
CC(=O)Nc1ccc(Nc2nccc(N3CCC[C@H](C(=O)NCc4ccc(C)cc4)C3)n2)cc1 [Example 165, (3S)-1-(2-((4-(acetylamino)phenyl)amino)-4-pyrimidinyl)-N-(4-methylbenzyl)-3-piperidinecarboxamide]	1 to 5
Cc1ccc(CNC(=O)[C@H]2CCCN(c3ccnc(Nc4ccc(C#N)cc4)n3)C2)cc1 [Example 166, (3S)-1-(2-((4-cyanophenyl)amino)-4-pyrimidinyl)-N-(4-methylbenzyl)-3-piperidinecarboxamide]	1 to 5
CNC(=O)c1cccc(Nc2nccc(N3CCC[C@H](C(=O)NCc4ccc(C)cc4)C3)n2)c1 [Example 168, (3S)-N-(4-methylbenzyl)-1-(2-((3-(methylcarbamoyl)phenyl)amino)-4-pyrimidinyl)-3-piperidinecarboxamide]	1 to 5
Cc1ccc(CNC(=O)[C@H]2CCCN(c3ccnc(Nc4ccc(C(C)C)cc4)n3)C2)cc1 [Example 172, (3S)-N-(4-methylbenzyl)-1-(2-((4-(1-methylethyl)phenyl)amino)-4-pyrimidinyl)-3-piperidinecarboxamide]	1 to 5
Cc1ccc(CNC(=O)[C@H]2CCCN(c3ccnc(Nc4ccc(C(N)=O)cc4)n3)C2)cc1 [Example 173, (3S)-1-(2-((4-carbamoylphenyl)amino)-4-pyrimidinyl)-N-(4-methylbenzyl)-3-piperidinecarboxamide]	1 to 5
Cc1ccc(CNC(=O)[C@H]2CCCN(c3ccnc(Nc4cc(Cl)cc(Cl)c4)n3)C2)cc1 [Example 174, (3S)-1-(2-((3,5-dichlorophenyl)amino)-4-pyrimidinyl)-N-(4-methylbenzyl)-3-piperidinecarboxamide]	1 to 5
Cc1ccc(CNC(=O)[C@H]2CCCN(c3ccnc(Nc4cccc(OCc5ccccc5)c4)n3)C2)cc1 [Example 175, (3S)-1-(2-((3-(benzyloxy)phenyl)amino)-4-pyrimidinyl)-N-(4-methylbenzyl)-3-piperidinecarboxamide]	1 to 5
Cc1ccc(CNC(=O)[C@H]2CCCN(c3ccnc(Nc4cccc(-c5nnn[nH]5)c4)n3)C2)cc1 [Example 176, (3S)-N-(4-methylbenzyl)-1-(2-((3-(1H-tetrazol-5-yl)phenyl)amino)-4-pyrimidinyl)-3-piperidinecarboxamide]	5 to 10
Cc1ccc(CNC(=O)[C@H]2CCCN(c3ccnc(Nc4ccc(F)cc4)n3)C2)cc1 [Example 179, (3S)-1-(2-((4-fluorophenyl)amino)-4-pyrimidinyl)-N-(4-methylbenzyl)-3-piperidinecarboxamide]	1 to 5
Cc1ccc(CNC(=O)[C@H]2CCCN(c3ccnc(Nc4ccc(C)cc4)n3)C2)cc1 [Example 180, (3S)-N-(4-methylbenzyl)-1-(2-((4-methylphenyl)amino)-4-pyrimidinyl)-3-piperidinecarboxamide]	1 to 5
Cc1ccc(CNC(=O)[C@H]2CCCN(c3ccnc(Nc4cccc(-c5ccccc5)c4)n3)C2)cc1 [Example 182, (3S)-1-(2-(3-biphenylylamino)-4-pyrimidinyl)-N-(4-methylbenzyl)-3-piperidinecarboxamide]	0.1 to 1
CC(=O)NCc1cccc(Nc2nccc(N3CCC[C@H](C(=O)NCc4ccc(C)cc4)C3)n2)c1 [Example 183, (3S)-1-(2-((3-((acetylamino)methyl)phenyl)amino)-4-pyrimidinyl)-N-(4-methylbenzyl)-3-piperidinecarboxamide]	0.1 to 1
Cc1ccc(CNC(=O)[C@H]2CCCN(c3ccnc(Nc4cccc(CC(N)=O)c4)n3)C2)cc1 [Example 184, (3S)-1-(2-((3-(2-amino-2-oxoethyl)phenyl)amino)-4-pyrimidinyl)-N-(4-methylbenzyl)-3-piperidinecarboxamide]	0.1 to 1
Cc1ccc(CNC(=O)[C@H]2CCCN(c3ccnc(Nc4cccc(F)c4)n3)C2)cc1 [Example 185, (3S)-1-(2-((3-fluorophenyl)amino)-4-pyrimidinyl)-N-(4-methylbenzyl)-3-piperidinecarboxamide]	1 to 5
Cc1ccc(CNC(=O)[C@H]2CCCN(c3ccnc(Nc4ccc(C(=O)c5ccccc5)cc4)n3)C2)cc1 [Example 186, (S)-1-(2-(4-benzoylphenylamino)pyrimidin-4-yl)-N-(4-methylbenzyl)piperidine-3-carboxamide]	5 to 10
CCN(CC)CCNC(=O)c1ccc(Nc2nccc(N3CCC[C@H](C(=O)NCc4ccc(C)cc4)C3)n2)cc1 [Example 187, (S)-1-(2-(4-(2-(diethylamino)ethylcarba-moyl)phenylamino)pyri-midin-4-yl)-N-(4-methylbenzyl)piperidine-3-carboxamide]	0.1 to 1
Cc1ccc(CNC(=O)[C@H]2CCCN(c3ccnc(Nc4ccc(S(N)(=O)=O)cc4)n3)C2)cc1 [Example 188, (S)-N-(4-methylbenzyl)-1-(2-(4-sulfamoylphenylamino)pyrimidin-4-yl)piperidine-3-carboxamide]	0.1 to 1
Cc1ccc(CNC(=O)[C@H]2CCCN(c3ccnc(Nc4ccc(-c5cnco5)cc4)n3)C2)cc1 [Example 189, (S)-N-(4-methylbenzyl)-1-(2-(4-(oxazol-5-yl)phenylamino)py-rimidin-4-yl)piperidine-3-carboxamide]	1 to 5

Other lines, results leading:

IC50 [µM]	Structure (SMILES)
0.1 to 1	CSc1cccc(Nc2nccc(N3CCC[C@H](C(=O)NCc4ccc(C)cc4)C3)n2)c1 [Example 157, (3S)-N-(4-methylbenzyl)-1-(2-((3-(methylsulfanyl)phenyl)amino)-4-pyrimidinyl)-3-piperidinecarboxamide]
0.1 to 1	Cc1ccc(CNC(=O)[C@H]2CCCN(c3ccnc(Nc4cccc(C)c4)n3)C2)cc1 [Example 158, (3S)-N-(4-methylbenzyl)-1-(2-((3-methylphenyl)amino)-4-pyrimidinyl)-3-piperidinecarboxamide]
0.1 to 1	Cc1ccc(CNC(=O)[C@H]2CCCN(c3ccnc(Nc4cccc(OC(C)C)c4)n3)C2)cc1 [Example 160, (3S)-N-(4-methylbenzyl)-1-(2-((3-(1-methylethoxy)phenyl)amino)-4-pyrimidinyl)-3-piperidinecarboxamide]
0.1 to 1	Cc1ccc(CNC(=O)[C@H]2CCCN(c3ccnc(Nc4ccc(N5CCN(C)CC5)cc4)n3)C2)cc1 [Example 161, (3S)-N-(4-methylbenzyl)-1-(2-((4-(4-methyl-1-piperazinyl)phenyl)ami-no)-4-pyrimidinyl)-3-piperidinecarboxamide]
0.1 to 1	Cc1ccc(CNC(=O)[C@H]2CCCN(c3ccnc(Nc4cc(C(F)(F)F)cc(C(F)(F)F)c4)n3)C2)cc1 [Example 163, (3S)-1-(2-((3,5-bis(trifluoromethyl)phenyl)amino)-4-pyrimidinyl)-N-(4-methylbenzyl)-3-piperidinecarboxamide]
0.1 to 1	Cc1ccc(CNC(=O)[C@H]2CCCN(c3ccnc(Nc4cccc(C(C)O)c4)n3)C2)cc1 (stereo partly drawn) [Example 167, (3S)-1-(2-((3-(1-hydroxyethyl)phenyl)amino)-4-pyrimidinyl)-N-(4-methylbenzyl)-3-piperidinecarboxamide]
0.1 to 1	COc1cc(F)cc(Nc2nccc(N3CCC[C@H](C(=O)NCc4ccc(C)cc4)C3)n2)c1 [Example 169, (3S)-1-(2-((3-fluoro-5-methoxyphenyl)amino)-4-pyrimidinyl)-N-(4-methylbenzyl)-3-piperidinecarboxamide]
0.1 to 1	COc1cc(Nc2nccc(N3CCC[C@H](C(=O)NCc4ccc(C)cc4)C3)n2)cc(C(F)(F)F)c1 [Example 170, (3S)-1-(2-((3-methoxy-5-(trifluoromethyl)phenyl)amino)-4-pyrimidinyl)-N-(4-methylbenzyl)-3-piperidinecarboxamide]
0.1 to 1	Cc1ccc(CNC(=O)[C@H]2CCCN(c3ccnc(Nc4cccc(C(C)C)c4)n3)C2)cc1 [Example 171, (3S)-N-(4-methylbenzyl)-1-(2-((3-(1-methylethyl)phenyl)amino)-4-pyrimidinyl)-3-piperidinecarboxamide]
0.1 to 1	Cc1ccc(CNC(=O)[C@H]2CCCN(c3ccnc(Nc4cccc(-c5cnco5)c4)n3)C2)cc1 [Example 177, (3S)-N-(4-methylbenzyl)-1-(2-((3-(1,3-oxazol-5-yl)phenyl)amino)-4-pyrimidinyl)-3-piperidinecarboxamide]
0.1 to 1	CC(=O)Nc1cccc(Nc2nccc(N3CCC[C@H](C(=O)NCc4ccc(C)cc4)C3)n2)c1 [Example 178, (3S)-1-(2-((3-(acetylamino)phenyl)amino)-4-pyrimidinyl)-N-(4-methylbenzyl)-3-piperidinecarboxamide]
0.1 to 1	Cc1ccc(CNC(=O)[C@H]2CCCN(c3ccnc(Nc4cccc(C(C)(C)C)c4)n3)C2)cc1 [Example 181, (3S)-1-(2-((3-tert-butylphenyl)amino)-4-pyrimidinyl)-N-(4-methylbenzyl)-3-piperidinecarboxamide]
